Each structure is given as a SMILES string. Values after ≈ are worked out from the molar mass of the structure shown. Where only a bound is given, the exact number is not on record here.

Assay [1] deals with E. coli ATCC 25922. The assay can be described thus: Dielectrophoretic test (cell elongation, crossover frequency). It counts as cell-based, Escherichia coli. The conditions noted are these: for dielectrophoretic behaviour and cell elongation: alternating current frequency 600 kHz. The procedure: Phosphate-buffered saline (PBS) containing 137 mM NaCl, 2.7 mM KCl, 4.3 mM Na2HPO4, and 1.47 mM KH2PO4 at pH 7.4 was prepared. An oral β-lactam antibiotic, cephalexin (Sigma, USA), which generally is used in the treatment of urinary tract infection (UTI), was dissolved in 1×PBS and prepared into a stock concentration of 1024 μg/mL. This stock concentration was diluted with trypticase soy broth (TBS) into 4 μg/mL and 32 μg/mL.
Among different cell lines of Escherichia coli causing urinary infection, E. coli ATCC 25922 was selected and cultured with TBS under shaking at 37° C. Then, the bacterial concentration of the culture suspensions was adjusted to 1.5×10^6 cells/ml by a densitometer (VITEK 2, BioMérieux).
(§1) The bacterial suspension (100 μl) and TBS culture media (containing the antibiotic at different concentrations, 900 μl) were mixed ([…]) and incubated at 37° C. in a shaking incubator for 60 minutes. After the treatment, the bacterial suspensions (500-1000 μl) were centrifugated at 3000-5000 rpm for 3-5 minutes. The supernatant of the bacterial suspensions was removed. Finally, 0.2 M 4-(2-hydroxyethyl)-1-piperazineethanesulfonic acid (HEPES) buffer (500 μl, σ=3 mS/cm, Invitrogen 15630) was added to the remaining bacteria and the formed bacterial suspensions were shaken using a vortex mixer (Shin Kwang, Taiwan) for 30 seconds to avoid aggregation of the bacteria for the following dielectrophoretic tests.
(§2) The bacterial suspensions (5 μl) were pipetted into a sample well of the chip of Preparation Example 1. The electrode array was then connected to a function generator (Fluke 284 USA) and supplied with an alternating current signal or dielectrophoresis. The frequency of E. coli migrating from the electrode center to the electrode edge, was determined as crossover frequency (cof). During dielectrophoresis, the images were observed and recorded through an inverted microscope (Olympus IX70, Japan) and a CCD camera (Microfire, Optronics).
In the same manner as that of Example 1, the antibiotic solutions at 1 μg/mL, 2 μg/mL, 4 μg/mL, 8 μg/mL, 16 μg/mL, 32 μg/mL, and 64 μg/mL were prepared and their action periods of time were 30, 60, and 120 minutes. In addition, the chip of Preparation Example 2 was used in the analysis. For measurement of the cell length of E. coli during dielectrophoresis, when the bacteria were straightly arranged on an ITO quadruple electrode by field-induced dielectrophoretic force, the cell length was analyzed by the image software (FreePlus32).
(§3) In the same manner as that of Example 1, a cefazolin solution at 2 μg/mL was prepared and used to act on E. coli ATCC 25922, w958, and BCRC 15501 for 120 minutes for the following dielectrophoretic testing. Among these cell lines, E. coli w958 from National Cheng Kung University Hospital in Taiwan is a drug-resistant bacterium isolated from clinical samples.

The test system of assay [2] is E. coli BCRC 15501. The assay can be described thus: Dielectrophoretic test (cell elongation). It counts as cell-based, Escherichia coli. The conditions noted are these: cefazolin 2 μg/mL, 120 minutes. The procedure: as §1, §2, §3
The subject of assay [3] is E. coli w958. Kind of assay: Dielectrophoretic test (cell elongation). It counts as cell-based, Escherichia coli. The conditions noted are these: cefazolin 2 μg/mL, 120 minutes. The procedure: as §1, §2, §3
Assay [4] relates to E. coli ATCC 25922. The assay can be described thus: Conventional broth dilution method. It counts as cell-based. As to conditions: Escherichia coli, ATCC25922, 0-16 μg/mL tested, read-out: inhibitory concentration (MIC). As for the experimental part:
(§4) In order to confirm that the results from Example 3 of the present invention are not different from those from a conventional method, a broth dilution method was carried out on E. coli ATCC 25922, w958, and BCRC 15501 at 0 μg/mL, 0.5 μg/mL, 1 μg/mL, 2 μg/mL, 4 μg/mL, 8 μg/mL, 16 μg/mL of cefazolin. The results are shown in FIGS. 6 (a) to (c), wherein No denotes no bacteria.

The test system of assay [5] is E. coli BCRC 15501. The assay can be described thus: Conventional broth dilution method. It counts as cell-based. The conditions noted are these: Escherichia coli, BCRC15501, 0-16 μg/mL tested, read-out: inhibitory concentration (MIC). The procedure:
as §4

The test system of assay [6] is E. coli w958. Kind of assay: Conventional broth dilution method. Format: cell-based. The conditions noted are these: Escherichia coli, 0-16 μg/mL tested, read-out: inhibitory concentration (MIC). As for the experimental part:
as §4

A further assay concerns E. coli. Kind of assay: Conventional agar dilution method. Format: cell-based. The conditions noted are these: Escherichia coli. An excerpt:
In order to confirm that the MIC determined in Example 2 of the present invention is not different from that determined in conventional methods, an agar dilution method was used to determine the MIC of cephalexin to E. coli.

On to `Cc1nnc(SCC2=C(C(=O)O)N3C(=O)[C@@H](NC(=O)Cn4cnnn4)[C@H]3SC2)s1` [cefazolin], for which the cell elongation entry in the assay with E. coli ATCC 25922 [1] (cefazolin 2 μg/mL, 120 minutes) is recorded as “obvious cell elongation occurs”; in the assay with E. coli BCRC 15501 [2] it was “obvious cell elongation occurs”. In addition, the “drug resistance of the bacterium” value in the assay with E. coli ATCC 25922 [1] (cefazolin 2 μg/mL, 120 minutes) was “not resistant to cefazolin”; in the assay with E. coli BCRC 15501 [2] it was “not resistant to cefazolin”; with E. coli w958 [3], “resistant to cefazolin”. In the assay on E. coli w958 [3], the morphological cell elongation entry is “morphological cell elongation is unobvious”. In addition, the MIC is 2 µg/mL (≈ 4.4 µM) in the assay on E. coli ATCC 25922 [4], 2 µg/mL (≈ 4.4 µM) with E. coli BCRC 15501 [5] and > 16 µg/mL in the assay with E. coli w958 [6].

For `CC1=C(C(=O)O)N2C(=O)[C@@H](NC(=O)[C@H](N)c3ccccc3)[C@H]2SC1` [cephalexin], the “crossover frequency (cof)” value with E. coli ATCC 25922 [1] (32 μg/mL for 60 minutes) is listed as “about 600 kHz”. Moreover, the cell length result in the assay on E. coli ATCC 25922 [1] (1-64 μg/mL, 30, 60, 120 minutes, FIGS. 3 (a) and (c)) was “cell length increases as the concentration and action time increase”. In addition, the MIC with E. coli ATCC 25922 [1] (Escherichia coli, ATCC25922, 1 h, determined by dielectrophoresis, 60 minutes, read-out: minimum inhibitory concentration (MIC)) is 32 µg/mL (≈ 92.1 µM); in the assay with E. coli, 32 to 64 µg/mL (≈ 92.1 to 184 µM). For the same molecule, the morphological cell elongation result in the assay with E. coli ATCC 25922 [1] (FIG. 2 (c), text prints 60 minutes, figure legend 120 minutes) is recorded as “morphological cell elongation occurs obviously even at a low concentration of the antibiotic”; with E. coli ATCC 25922 [1] (antibiotic treatment for 60 minutes, FIG. 2 (b)), “morphological cell elongation occurs obviously as the antibiotic concentrations increase”. Besides, the cell elongation entry in the assay on E. coli ATCC 25922 [1] (antibiotic 4 μg/ml, 60 minutes, alternating current frequency 4 MHz) is given as “some bacteria are slightly elongated”; in the assay with E. coli ATCC 25922 [1] (antibiotic 32 μg/ml for 1 hour, alternating current frequency 4 MHz), “all bacteria have become elongated”. Moreover, the “dielectrophoretic behaviour and cell elongation” value is “some bacteria are still arranged at the center of the electrodes by negative dielectrophoretic force. However, the others are adsorbed at the edges of the electrode by positive dielectrophoretic force and slightly elongated” in the assay with E. coli ATCC 25922 [1] (antibiotic 4 μg/ml, 60 minutes); “all bacteria are adsorbed at the edges of the electrode by positive dielectrophoretic force and have become elongated” in the assay with E. coli ATCC 25922 [1] (antibiotic 32 μg/ml for 1 hour). For the same molecule, in the assay on E. coli ATCC 25922 [1] (antibiotic treatment for 30 minutes, FIG. 2 (a)), the “morphological changes in bacteria” value is “distinction between morphological changes in bacteria is difficult”.

These data come from patent US8911605B2, “Method for antibiotic susceptibility testing and determining minimum inhibitory concentration of the antibiotic” (National Cheng Kung University, priority 2011, dated 2014).
